According to patent publication US10640765B2 (priority 2016, dated 2020):

Legend:
vaccinia virus = type: cell-based
[1] = tested on: vaccinia virus (v7.5/tk viral DNA) in BSC-1 cells; type: cell-based

Structure (SMILES): CO[C@H]1/C=C/O[C@@]2(C)Oc3c(C)c(O)c4c(O)c(c(/C=N/N5CCN(C)CC5)c(O)c4c3C2=O)NC(=O)/C(C)=C\C=C\[C@H](C)[C@H](O)[C@@H](C)[C@@H](O)[C@@H](C)[C@H](OC(C)=O)[C@@H]1C [Rifampicin, rifampicin]
- overall efficiency of clone production with rifampicin versus without rifampicin (vaccinia virus): approximately 10 fold
- efficiency (number of recombinant clones) [1]: 113,148 clones/100 mm^2 plate
